# Where two headings read alike, the source gives them in different places.
# Tests used:
# Assay type in all cases: biochemical
# MAGL = target: T1, MAGL (Mus musculus, UniProt O35678); experiment: In vitro competitive activity-based protein profiling (mouse), MAGL; details: for inhibition at 1 µM: read-out: % Inhibition at 1 μM MAGL; for IC50: mouse brain membrane fraction or cell lysates, 30 min preincubation at 37° C, FP-Rh probe
# T1 construct: Proteomes (mouse brain membrane fraction or cell lysates); from tissue; host or cells: mouse brain membrane fraction (or unspecified cell lysates)
# T1 sequence (O35678 1-303): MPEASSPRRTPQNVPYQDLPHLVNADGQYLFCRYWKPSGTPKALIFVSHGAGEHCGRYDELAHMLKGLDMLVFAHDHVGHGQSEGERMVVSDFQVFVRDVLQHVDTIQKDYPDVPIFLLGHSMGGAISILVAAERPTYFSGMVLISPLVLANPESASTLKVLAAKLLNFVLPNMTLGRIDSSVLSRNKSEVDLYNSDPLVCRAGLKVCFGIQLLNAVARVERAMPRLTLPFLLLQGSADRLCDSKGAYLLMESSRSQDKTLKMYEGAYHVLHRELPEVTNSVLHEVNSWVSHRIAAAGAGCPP
# Protocol: (§1) In Vitro Competitive Activity-Based Protein Profiling (Mouse).
# (§2) Proteomes (mouse brain membrane fraction or cell lysates) (50 μL, 1.0 mg/mL total protein concentration) were preincubated with varying concentrations of inhibitors at 37° C. After 30 min, FP-Rh (1.0 μL, 50 μM in DMSO) was added and the mixture was incubated for another 30 min at 37° C. Reactions were quenched with SDS loading buffer (50 μL-4×) and run on SDS-PAGE.
# FAAH = target: T2, FAAH (Mus musculus, UniProt O08914); experiment: In vitro competitive activity-based protein profiling (mouse), FAAH; details: for inhibition at 1 µM: mouse proteome, in vitro; for IC50: mouse brain membrane fraction or cell lysates, 30 min preincubation at 37° C, FP-Rh probe
# T2 construct: Proteomes (mouse brain membrane fraction or cell lysates); from tissue; host or cells: mouse brain membrane fraction (or unspecified cell lysates)
# T2 sequence (O08914 1-579): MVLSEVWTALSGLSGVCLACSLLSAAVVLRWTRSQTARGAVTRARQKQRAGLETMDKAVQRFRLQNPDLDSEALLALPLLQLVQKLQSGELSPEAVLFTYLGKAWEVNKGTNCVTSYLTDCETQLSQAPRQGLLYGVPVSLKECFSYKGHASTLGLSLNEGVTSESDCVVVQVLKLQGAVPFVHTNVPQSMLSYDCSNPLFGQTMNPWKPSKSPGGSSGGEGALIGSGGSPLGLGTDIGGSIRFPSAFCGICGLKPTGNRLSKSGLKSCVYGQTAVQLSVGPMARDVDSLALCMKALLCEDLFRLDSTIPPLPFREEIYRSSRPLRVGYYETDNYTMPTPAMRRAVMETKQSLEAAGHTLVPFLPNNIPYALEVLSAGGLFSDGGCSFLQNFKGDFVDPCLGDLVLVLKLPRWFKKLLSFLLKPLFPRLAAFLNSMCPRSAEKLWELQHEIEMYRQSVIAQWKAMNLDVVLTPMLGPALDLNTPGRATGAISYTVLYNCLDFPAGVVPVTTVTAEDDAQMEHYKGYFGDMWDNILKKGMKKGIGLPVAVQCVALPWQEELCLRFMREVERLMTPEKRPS
# Protocol: as §1
# as §2, with “SDS-PAGE. Following gel imaging, serine hydrolase activity was determined by measuring fluorescent intensity of gel bands corresponding to MAGL, ABHD6 and FAAH using ImageJ 1.43u software.” for “SDS-PAGE.”
# ABHD6 = target: T3, ABHD6 (Mus musculus, UniProt Q8R2Y0); experiment: In vitro competitive activity-based protein profiling (mouse), ABHD6; details: for inhibition at 1 µM: read-out: % Inhibition at 1 μM ABHD6; for IC50: mouse brain membrane fraction or cell lysates, 30 min preincubation at 37° C, FP-Rh probe
# T3 construct: Proteomes (mouse brain membrane fraction or cell lysates); from tissue; host or cells: mouse brain membrane fraction (or unspecified cell lysates)
# T3 sequence (Q8R2Y0 1-336): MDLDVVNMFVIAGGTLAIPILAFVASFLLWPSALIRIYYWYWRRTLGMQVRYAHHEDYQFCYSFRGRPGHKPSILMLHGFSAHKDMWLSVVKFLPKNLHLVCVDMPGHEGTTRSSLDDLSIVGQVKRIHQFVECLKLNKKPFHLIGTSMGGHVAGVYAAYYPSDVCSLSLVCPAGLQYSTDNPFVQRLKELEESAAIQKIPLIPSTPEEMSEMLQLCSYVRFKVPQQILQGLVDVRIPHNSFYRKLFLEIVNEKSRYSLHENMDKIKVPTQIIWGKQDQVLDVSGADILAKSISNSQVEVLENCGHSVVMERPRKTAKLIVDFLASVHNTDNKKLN
# Protocol: as §1, §2
"inhibition at 1 µM (MAGL; 1 μM, mouse proteome, in vitro) [%]",IC50 (MAGL) [nM],inhibition at 1 µM (FAAH) [%],IC50 (FAAH) [nM],"inhibition at 1 µM (ABHD6; 1 μM, mouse proteome, in vitro) [%]",IC50 (ABHD6) [nM],Compound,inhibition at 1 µM (MAGL) [%],inhibition at 1 µM (ABHD6) [%]
> 75,< 100,< 25,> 1000,> 75,100 to 1000,"O=C(OC(C(F)(F)F)C(F)(F)F)N1CCN(Cc2cccc(CN3CCOCC3)c2F)CC1 [Example 22, 1,1,1,3,3,3-hexafluoropropan-2-yl 4-(2-fluoro-3-(morpholinomethyl)benzyl)piperazine-1-carboxylate]",–,–
> 75,100 to 1000,< 25,> 1000,< 25,> 1000,"O=C(OC(C(F)(F)F)C(F)(F)F)N1CCN(Cc2ccc(CN3CCCCC3)cc2OC(F)(F)F)CC1 [Example 24, 1,1,1,3,3,3-hexafluoropropan-2-yl 4-(4-(piperidin-1-ylmethyl)-2-(trifluoromethoxy)benzyl)piperazine-1-carboxylate]",–,–
> 75,100 to 1000,< 25,> 1000,< 25,> 1000,"O=C(OC(C(F)(F)F)C(F)(F)F)N1CCN(Cc2ccc(CN3CCCC3)cc2OC(F)(F)F)CC1 [Example 25, 1,1,1,3,3,3-hexafluoropropan-2-yl 4-(4-(pyrrolidin-1-ylmethyl)-2-(trifluoromethoxy)benzyl)piperazine-1-carboxylate]",–,–
> 75,< 100,< 25,> 1000,25 to 75,100 to 1000,"O=C(OC(C(F)(F)F)C(F)(F)F)N1CCN(Cc2ccc(N3CC4CCC(C3)O4)cc2F)CC1 [Example 27, 1,1,1,3,3,3-hexafluoropropan-2-yl 4-(4-(8-oxa-3-azabicyclo[3.2.1]octan-3-yl)-2-fluorobenzyl)piperazine-1-carboxylate]",–,–
> 75,100 to 1000,< 25,> 1000,< 25,> 1000,"O=C(OC(C(F)(F)F)C(F)(F)F)N1CCN(Cc2ccc(N3CC4CCC(C3)O4)cc2OC(F)(F)F)CC1 [Example 28, 1,1,1,3,3,3-hexafluoropropan-2-yl 4-(4-(8-oxa-3-azabicyclo[3.2.1]octan-3-yl)-2-(trifluoromethoxy)benzyl)piperazine-1-carboxylate]",–,–
> 75,100 to 1000,< 25,> 1000,< 25,> 1000,"O=C(OC(C(F)(F)F)C(F)(F)F)N1CCN(Cc2cc(Cl)cc(CN3CCCC3)c2)CC1 [Example 29, 1,1,1,3,3,3-hexafluoropropan-2-yl 4-(3-chloro-5-(pyrrolidin-1-ylmethyl)benzyl)piperazine-1-carboxylate]",–,–
> 75,100 to 1000,< 25,> 1000,< 25,> 1000,"CN(C)C(=O)C1CCN(c2cc(Cl)ccc2CN2CCN(C(=O)OC(C(F)(F)F)C(F)(F)F)CC2)CC1 [Example 34, 1,1,1,3,3,3-hexafluoropropan-2-yl 4-(4-chloro-2-(4-(dimethylcarbamoyl)piperidin-1-yl)benzyl)piperazine-1-carboxylate]",–,–
> 75,< 100,< 25,> 1000,> 75,100 to 1000,"NC(=O)C1CCN(c2cc(C(F)(F)F)ccc2CN2CCN(C(=O)OC(C(F)(F)F)C(F)(F)F)CC2)CC1 [Example 36, 1,1,1,3,3,3-hexafluoropropan-2-yl 4-(2-(4-carbamoylpiperidin-1-yl)-4-(trifluoromethyl)benzyl)piperazine-1-carboxylate]",–,–
> 75,100 to 1000,< 25,> 1000,< 25,> 1000,"O=C(OC(C(F)(F)F)C(F)(F)F)N1CCN(Cc2ccc(Cl)cc2N2CCC(C(=O)N3CCCC3)CC2)CC1 [Example 37, 1,1,1,3,3,3-hexafluoropropan-2-yl 4-(4-chloro-2-(4-(pyrrolidine-1-carbonyl)piperidin-1-yl)benzyl)piperazine-1-carboxylate]",–,–
> 75,< 100,< 25,> 1000,< 25,100 to 1000,"Cc1cc(C)n(C2CN(c3cc(Cl)ccc3CN3CCN(C(=O)OC(C(F)(F)F)C(F)(F)F)CC3)C2)n1 [Example 38, 1,1,1,3,3,3-hexafluoropropan-2-yl 4-(4-chloro-2-(3-(3,5-dimethyl-1H-pyrazol-1-yl)azetidin-1-yl)benzyl)piperazine-1-carboxylate]",–,–
> 75,< 100,25 to 75,> 1000,25 to 75,> 1000,"O=C(OC(C(F)(F)F)C(F)(F)F)N1CCN(Cc2ccc(Cl)cc2N2CC[C@H](N3CCCS3(=O)=O)C2)CC1 [Example 46, 1,1,1,3,3,3-hexafluoropropan-2-yl (S)-4-(4-chloro-2-(3-(1,1-dioxidoisothiazolidin-2-yl)pyrrolidin-1-yl)benzyl)piperazine-1-carboxylate]",–,–
> 75,–,< 25,–,< 25,–,"CS(=O)(=O)N[C@@H]1CCN(c2cccc(C(F)(F)F)c2CN2CCN(C(=O)OC(C(F)(F)F)C(F)(F)F)CC2)C1 [Example 47, 1,1,1,3,3,3-hexafluoropropan-2-yl (R)-4-(2-(3-(methylsulfonamido)pyrrolidin-1-yl)-6-(trifluoromethyl)benzyl)piperazine-1-carboxylate]",–,–
25 to 75,–,< 25,–,< 25,–,"CS(=O)(=O)N[C@H]1CCN(c2cccc(C(F)(F)F)c2CN2CCN(C(=O)OC(C(F)(F)F)C(F)(F)F)CC2)C1 [Example 48, 1,1,1,3,3,3-hexafluoropropan-2-yl (S)-4-(2-(3-(methylsulfonamido)pyrrolidin-1-yl)-6-(trifluoromethyl)benzyl)piperazine-1-carboxylate]",–,–
< 25,–,< 25,–,< 25,–,"O=C(OC(C(F)(F)F)C(F)(F)F)N1CCN(Cc2c(N3CC4CCC(C3)O4)cccc2C(F)(F)F)CC1 [Example 50, 1,1,1,3,3,3-hexafluoropropan-2-yl 4-(2-(8-oxa-3-azabicyclo[3.2.1]octan-3-yl)-6-(trifluoromethyl)benzyl)piperazine-1-carboxylate]",–,–
> 75,< 100,< 25,> 1000,> 75,100 to 1000,"Cc1c(CN2CCN(C(=O)OC(C(F)(F)F)C(F)(F)F)CC2)cccc1N1CCC(NS(C)(=O)=O)CC1 [Example 52, 1,1,1,3,3,3-hexafluoropropan-2-yl 4-(2-methyl-3-(4-(methylsulfonamido)piperidin-1-yl)benzyl)piperazine-1-carboxylate]",–,–

Compound,"inhibition at 1 µM (MAGL; 1 μM, mouse proteome, in vitro) [%]",IC50 (MAGL) [nM],inhibition at 1 µM (FAAH) [%],IC50 (FAAH) [nM],"inhibition at 1 µM (ABHD6; 1 μM, mouse proteome, in vitro) [%]",IC50 (ABHD6) [nM],inhibition at 1 µM (MAGL) [%],inhibition at 1 µM (ABHD6) [%]
"O=C(OC(C(F)(F)F)C(F)(F)F)N1CCN(Cc2c(N3C4CCC3COC4)cccc2C(F)(F)F)CC1 [Example 49, 1,1,1,3,3,3-hexafluoropropan-2-yl 4-(2-(3-oxa-8-azabicyclo[3.2.1]octan-8-yl)-6-(trifluoromethyl)benzyl)piperazine-1-carboxylate]",–,–,< 25,–,–,–,25 to 75,< 25

# — patent US9771341B2, “Piperazine carbamates and methods of making and using same” (Abide Therapeutics, Inc., priority 2015, dated 2017)
